Test results published in patent US6946297B2, “System for stabilizing samples” (priority 1999, dated 2005).

Tests used:
Assay in all cases: Survival of organisms in inoculated urine with preservative components, 24 hours at room temperature
Assay type in all cases: cell-based
Enterobacter aerogenes = test system: Enterobacter aerogenes; parameters: key to Survival value enae: 24 h count / control count; 1 = no change, 0.1 = 1-log decrease; conditions: for Concentration inhibitory against Enterobacter aerogenes (ineffective up to = >): component alone
Protocol: (§1) Antimicrobial activity for each active ingredient in the Chemistat I formulations was first determined for representative organisms listed in Table I. A culture for each organism of interest on blood agar was incubated at 36° C. overnight. About two to three colonies of the organism were transferred via sterile swab from the blood agar culture into a 5 ml Mueller-Hinton broth culture tube, which was then incubated on a rotator for about two to three hours at 36° C. Using a spectrophotometer set at a wavelength of 630 nm, the turbidity of broth culture was adjusted by the addition of Mueller-Hinton broth to an optical density equivalent to approximately 1×10^8 colony forming units (cfu)/ml to form an inoculum solution. An aliquot of the inoculum solution was plated onto blood agar to determine the actual control organism count. For each component listed in Table II, the component was added to filter-sterilized pooled normal urine at the concentration given in Table II to form a test sample. The test sample was then inoculated with an aliquot of the inoculum solution providing a final organism count of approximately 1×10^6 cfu/ml of test sample. Immediately after thorough mixing, an aliquot of the test sample was removed and serially diluted in PBS, and serial dilutions were plated onto blood agar to determine the Time Zero organism count. The inoculated plates were incubated at 36° C., and organism counts were recorded after 18-24 hours. After incubating the test sample for 24 hours at room temperature, an aliquot of the test sample was again removed, serially diluted in PBS and plated onto blood agar. After incubating for 18-24 hours at 36° C., organism counts were obtained. The organism count obtained after 24 hours incubation at room temperature was divided by the control organism count to provide the survival value of each organism as recorded in Table II. With respect to changes in microbial count, a survival value of 1 represents no change; a survival value of 0.1 indicates a 1-log decrease; a survival value of 10 indicates a 1-log increase; and a survival value of 0.000 represents a decrease of greater than or equal to 3-logs. In comparison, the lower the survival value, the greater the component's capacity for controlling organism growth.

Enterococcus faecalis = test system: Enterococcus faecalis; parameters: key to Survival value enfa: 24 h count / control count; 1 = no change, 0.1 = 1-log decrease; conditions: for Concentration inhibitory against Enterococcus faecalis (ineffective up to = >): component alone
Protocol: as §1

Escherichia coli = test system: Escherichia coli; parameters: key to Survival value esco: 24 h count / control count; 1 = no change, 0.1 = 1-log decrease
Protocol: as §1

Klebsiella pneumoniae = conditions: for Concentration inhibitory against Klebsiella pneumoniae (ineffective up to = >): component alone
Protocol: as §1

Pseudomonas aeruginosa = conditions: for Concentration inhibitory against Pseudomonas aeruginosa (ineffective up to = >): component alone
Protocol: as §1

Proteus vulgaris = conditions: for Concentration inhibitory against Proteus vulgaris (ineffective up to = >): component alone
Protocol: as §1

Candida albicans = test system: Candida albicans; parameters: key to Survival value caal: 24 h count / control count; 1 = no change, 0.1 = 1-log decrease; conditions: for Concentration inhibitory against Candida albicans (ineffective up to = >): component alone
Protocol: as §1

How did the “Concentration inhibitory against Enterobacter aerogenes (ineffective up to = >)” value (Enterobacter aerogenes) turn out when `CCOC(=O)c1ccc(O)cc1` [Ethyl parahydroxybenzoate, ethyl parahydroxybenzoate] was run?
The value was 1 mg/mL.

What about the Survival value enae (Enterobacter aerogenes; single component at 1 mg/ml) of the same compound?
Its Survival value enae is 0.208.

And the “Concentration inhibitory against Enterococcus faecalis (ineffective up to = >)” value (Enterococcus faecalis)?
The value was > 1 mg/mL.

What about the Survival value enfa (Enterococcus faecalis; single component at 0.5 mg/ml) of the same compound?
Its Survival value enfa is “tntc”.

And the Survival value enfa (Enterococcus faecalis; single component at 1 mg/ml)?
Its Survival value enfa is “tntc”.

And the “Concentration with cidal activity against Escherichia coli” value (Escherichia coli; component alone)?
The value was 1 mg/mL.

And the Survival value esco (Escherichia coli; single component at 0.5 mg/ml)?
The Survival value esco was “tntc”.

And the Survival value esco (Escherichia coli; single component at 1 mg/ml)?
Its Survival value esco is 0.000.

And the “Concentration inhibitory against Klebsiella pneumoniae (ineffective up to = >)” value (Klebsiella pneumoniae)?
Its value is > 1 mg/mL.

What about the Survival value klpn (Klebsiella pneumoniae; single component at 0.5 mg/ml) of the same compound?
Its Survival value klpn is “tntc”.

What about the “Concentration inhibitory against Pseudomonas aeruginosa (ineffective up to = >)” value (Pseudomonas aeruginosa) of the same compound?
Its value is > 1 mg/mL.

And the Survival value psae (Pseudomonas aeruginosa; single component at 0.5 mg/ml)?
Its Survival value psae is “tntc”.

And the Survival value psae (Pseudomonas aeruginosa; single component at 1 mg/ml)?
Its Survival value psae is “tntc”.

And the “Concentration inhibitory against Proteus vulgaris (ineffective up to = >)” value (Proteus vulgaris)?
The value was > 1 mg/mL.

And the Survival value prvu (Proteus vulgaris; single component at 0.5 mg/ml)?
The Survival value prvu was “tntc”.

And the “Concentration inhibitory against Candida albicans (ineffective up to = >)” value (Candida albicans)?
The value was 0.5 mg/mL.

What about the Survival value caal (Candida albicans; single component at 0.5 mg/ml) of the same compound?
Its Survival value caal is 0.362.

How did the “Concentration inhibitory against Enterobacter aerogenes (ineffective up to = >)” value (Enterobacter aerogenes) turn out when `CCC(=O)[O-].[Na+]` [Sodium propionate, sodium propionate] was run?
The value was > 10 mg/mL.

What about the “Concentration inhibitory against Enterococcus faecalis (ineffective up to = >)” value (Enterococcus faecalis) of the same compound?
Its value is 10 mg/mL.

And the Survival value enfa (Enterococcus faecalis; single component at 5 mg/ml)?
Its Survival value enfa is “tntc”.

And the Survival value enfa (Enterococcus faecalis; single component at 10 mg/ml)?
The Survival value enfa was 2.702.

And the “Concentration inhibitory against Escherichia coli (ineffective up to = >)” value (Escherichia coli; component alone)?
The value was > 10 mg/mL.

And the Survival value esco (Escherichia coli; single component at 5 mg/ml)?
The Survival value esco was “tntc”.

What about the Survival value esco (Escherichia coli; single component at 10 mg/ml) of the same compound?
Its Survival value esco is “tntc”.

What about the “Concentration inhibitory against Klebsiella pneumoniae (ineffective up to = >)” value (Klebsiella pneumoniae) of the same compound?
The value was > 10 mg/mL.

What about the Survival value klpn (Klebsiella pneumoniae; single component at 5 mg/ml) of the same compound?
The Survival value klpn was “tntc”.

And the “Concentration inhibitory against Pseudomonas aeruginosa (ineffective up to = >)” value (Pseudomonas aeruginosa)?
The value was 10 mg/mL.

What about the Survival value psae (Pseudomonas aeruginosa; single component at 5 mg/ml) of the same compound?
Its Survival value psae is “tntc”.

And the Survival value psae (Pseudomonas aeruginosa; single component at 10 mg/ml)?
Its Survival value psae is 0.341.

And the “Concentration inhibitory against Proteus vulgaris (ineffective up to = >)” value (Proteus vulgaris)?
The value was > 10 mg/mL.

And the Survival value prvu (Proteus vulgaris; single component at 5 mg/ml)?
Its Survival value prvu is “tntc”.

What about the “Concentration inhibitory against Candida albicans (ineffective up to = >)” value (Candida albicans) of the same compound?
The value was > 10 mg/mL.

What about the Survival value caal (Candida albicans; single component at 5 mg/ml) of the same compound?
The Survival value caal was “tntc”.

What does the source list for `OB(O)O` [Boric Acid, boric acid, reference compound]?
Antimicrobial action against Enterobacter aerogenes, in words (Enterobacter aerogenes; concentrations as in label): ineffective; Survival value enae (Enterobacter aerogenes; single component at 5 mg/ml): 1.061; Antimicrobial action against Enterococcus faecalis, in words (Enterococcus faecalis; concentrations as in label): ineffective; Survival value enfa (Enterococcus faecalis; single component at 5 mg/ml): 2.647; Antimicrobial action against Escherichia coli, in words (Escherichia coli; concentrations as in label): ineffective; Survival value esco (Escherichia coli; single component at 5 mg/ml): 0.770; Antimicrobial action against Pseudomonas aeruginosa, in words (Pseudomonas aeruginosa; concentrations as in label): ineffective; Survival value psae (Pseudomonas aeruginosa; single component at 5 mg/ml): 1.157
